Reference: patent US20050175535A1 (CV Therapeutics, Inc., priority 2000, published 2005)

Assays:
[1] = tested on: rat isolated perfused heart; test: Reversal time of coronary vasodilation in rat isolated perfused hearts; conditions: bolus;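 for t0.5, time to 50% reversal of the increase in coronary conductance: each agonist bolused at its minimal concentration giving equal maximal coronary conductance rise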;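 for t0.9, time to 90% reversal of the increase in coronary conductance: each agonist bolused at its minimal concentration giving equal maximal coronary conductance rise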
Procedure: FIG. 10. Reversal of effect of agonist stimulation on CC. […] CC was measured at 8, 16 and 24 minutes after administration (FIG. 10A). […] R and N are the correlation coefficient and number of agonists, respectively.
The relationship between the affinity of agonists for the A2A receptor and the rate of reversal of agonist-mediated responses (coronary vasodilation in heart and cAMP accumulation in PC12 cells) upon termination of drug administration were determined. […] The duration of the coronary vasodilation in isolated rat hearts caused by adenosine, the CVT compounds, and other agonists measured as the time to 50% and 90% (t0.5 and t0.9, respectively) reversal of the increases in coronary conductance after termination of drug administration are summarized in Table 4.

[2] = Coronary and peripheral artery blood flow velocity, HR and MAP in anesthetized closed-chest dogs; type: in vivo; parameters: APV: unit not given here; conditions: for APV / MAP / HR: Ado (200 or 300 ug/kg); for Coronary, maximal folds increase in average peak velocity (APVmax/APVbaseline) / Peripheral, maximal folds increase in average peak velocity (APVmax/APVbaseline): iv injection of CVT-3146 (1 μg/kg) and adenosine (200 or 300 μg/kg)
Procedure: Mongrel dogs (either sex, 17-21 kg; n=6) were obtained from a local vendor (Barton, Oxford, N.J.). Blood flow velocity in the coronary and cranial circumflex arteries was measured using Doppler transducer-tipped guide wires 0.014″ in diameter (FloWire®, model 1400J) purchased from Cardiometrics, Inc., Mountain View, Calif. For the positioning of the FloWire, a Judkins left coronary guiding catheter (JL3.5, 8F; Cordis) was used. Vascular arterial angiography was performed using Hypaque-76 contrast fluid (Bracco Diagnostics, Inc., Princeton, N.J.; Lot #9H28899) and a mobile fluoroscopic unit (Philips, BV 29). Systemic arterial blood pressure was measured using an electronic transducer-tipped catheter (Millar).
Following the administration of heparin (20 U/kg+100 U/hr), the pressure transducer-tipped catheter was introduced through the left femoral artery and positioned in the descending aorta. The Doppler FloWire was introduced through the right femoral artery. A peripheral vein was cannulated for the administration of all drugs. […] The sequence of positioning of the Doppler catheter was reversed in consecutive experiments. […] All parameters were allowed to recover (>30 min) to their respective baseline values between two consecutive drug administrations. […] The effect of adenosine on both coronary and peripheral artery APV was studied in five of the six dogs.
The following parameters were monitored and recorded: Average peak coronary and peripheral artery blood flow velocity (APV), mean arterial blood pressure (MAP) (mmHg), and sinus cycle length (SCL; msec). Differences in measure parameters were tested for statistical significance using ANOVA and Student's t test corrected for multiple measurements. Data are expressed as the mean±SEM.

[3] = CVT-3146 1 μg/kg, adenosine 200 or 300 μg/kg iv bolus, anesthetized dogs
[4] = anesthetized dogs, listed as adenosine

With `Nc1ncnc2c1ncn2[C@@H]1O[C@H](CO)[C@@H](O)[C@H]1O` [Adenosine, adenosine, reference compound] the “duration of the effect on coronary conductance (rank among agonists)” value ([1]; isolated rat hearts, FIG. 10) was “shortest”, the “t0.5, time to 50% reversal of the increase in coronary conductance” value ([1]; rat isolated perfused heart) was 1.6 ± 0.1 min and the “t0.9, time to 90% reversal of the increase in coronary conductance” value ([1]; rat isolated perfused heart) was 5.6 ± 0.8 min. The APV ([2]; Coronary, time 1′, Baseline 42 ± 5) was 39 ± 8, the MAP ([2]; Coronary, time 1′, Baseline […] ± 6) was 113 ± 6 mmHg and the HR ([2]; Coronary, time 1′, Baseline 170 ± 10) was 175 ± 5. For the same compound, the APV ([2]; Coronary, time 1.5′, Baseline 42 ± 5) was 55 ± 8, the MAP ([2]; Coronary, time 1.5′, Baseline […] ± 6) was 117 ± 6 mmHg and the HR ([2]; Coronary, time 1.5′, Baseline 170 ± 10) was 171 ± 5. It also gave an APV ([2]; Coronary, time 2′, Baseline 42 ± 5) of 52 ± 7, an MAP ([2]; Coronary, time 2′, Baseline […] ± 6) of 120 ± 6 mmHg and an HR ([2]; Coronary, time 2′, Baseline 170 ± 10) of 170 ± 5. For the same compound, the APV ([2]; Coronary, time 3′, Baseline 42 ± 5) was 49 ± 6, the MAP ([2]; Coronary, time 3′, Baseline […] ± 6) was 125 ± 6 mmHg and the HR ([2]; Coronary, time 3′, Baseline 170 ± 10) was 168 ± 8. The APV ([2]; Coronary, time 4′, Baseline 42 ± 5) was 47 ± 6, the MAP ([2]; Coronary, time 4′, Baseline […] ± 6) was 126 ± 6 mmHg and the HR ([2]; Coronary, time 4′, Baseline 170 ± 10) was 164 ± 10. It also gave an APV ([2]; Coronary, time 5′, Baseline 42 ± 5) of 47 ± 6, an MAP ([2]; Coronary, time 5′, Baseline […] ± 6) of 128 ± 6 mmHg and an HR ([2]; Coronary, time 5′, Baseline 170 ± 10) of 163 ± 10. For the same compound, the APV ([2]; Coronary, time 10″, Baseline 42 ± 5) was 90 ± 10, the MAP ([2]; Coronary, time 10″, Baseline […] ± 6) was 126 ± 8 mmHg and the HR ([2]; Coronary, time 10″, Baseline 170 ± 10) was 174 ± 7. For the same compound, the APV ([2]; Coronary, time 20″, Baseline 42 ± 5) was 85 ± 10, the MAP ([2]; Coronary, time 20″, Baseline […] ± 6) was 90 ± 9 mmHg and the HR ([2]; Coronary, time 20″, Baseline 170 ± 10) was 166 ± 11. For the same compound, the APV ([2]; Coronary, time 30″, Baseline 42 ± 5) was 75 ± 9, the MAP ([2]; Coronary, time 30″, Baseline […] ± 6) was 107 ± 9 mmHg and the HR ([2]; Coronary, time 30″, Baseline 170 ± 10) was 173 ± 6. The APV ([2]; Peripheral, time 1′, Baseline 33 ± 3) was 44 ± 7, the MAP ([2]; Peripheral, time 1′, Baseline 118 ± 8) was 105 ± 6 mmHg and the HR ([2]; Peripheral, time 1′, Baseline 165 ± 10) was 171 ± 6. For the same compound, the APV ([2]; Peripheral, time 1.5′, Baseline 33 ± 3) was 38 ± 4, the MAP ([2]; Peripheral, time 1.5′, Baseline 118 ± 8) was 106 ± 7 mmHg and the HR ([2]; Peripheral, time 1.5′, Baseline 165 ± 10) was 171 ± 6. The APV ([2]; Peripheral, time 2′, Baseline 33 ± 3) was 35 ± 3, the MAP ([2]; Peripheral, time 2′, Baseline 118 ± 8) was 110 ± 6 mmHg and the HR ([2]; Peripheral, time 2′, Baseline 165 ± 10) was 169 ± 6. For the same compound, the APV ([2]; Peripheral, time 3′, Baseline 33 ± 3) was 33 ± 3, the MAP ([2]; Peripheral, time 3′, Baseline 118 ± 8) was 115 ± 7 mmHg and the HR ([2]; Peripheral, time 3′, Baseline 165 ± 10) was 165 ± 9. For the same compound, the APV ([2]; Peripheral, time 4′, Baseline 33 ± 3) was 31 ± 3, the MAP ([2]; Peripheral, time 4′, Baseline 118 ± 8) was 119 ± 8 mmHg and the HR ([2]; Peripheral, time 4′, Baseline 165 ± 10) was 160 ± 9. It also gave an APV ([2]; Peripheral, time 5′, Baseline 33 ± 3) of 30 ± 2, an MAP ([2]; Peripheral, time 5′, Baseline 118 ± 8) of 121 ± 7 mmHg and an HR ([2]; Peripheral, time 5′, Baseline 165 ± 10) of 158 ± 10. For the same compound, the APV ([2]; Peripheral, time 10″, Baseline 33 ± 3) was 62 ± 9, the MAP ([2]; Peripheral, time 10″, Baseline 118 ± 8) was 107 ± 9 mmHg and the HR ([2]; Peripheral, time 10″, Baseline 165 ± 10) was 171 ± 6. The APV ([2]; Peripheral, time 20″, Baseline 33 ± 3) was 76 ± 10, the MAP ([2]; Peripheral, time 20″, Baseline 118 ± 8) was 85 ± 9 mmHg and the HR ([2]; Peripheral, time 20″, Baseline 165 ± 10) was 162 ± 15. For the same compound, the APV ([2]; Peripheral, time 30″, Baseline 33 ± 3) was 59 ± 11, the MAP ([2]; Peripheral, time 30″, Baseline 118 ± 8) was 87 ± 9 mmHg and the HR ([2]; Peripheral, time 30″, Baseline 165 ± 10) was 168 ± 9. The “duration of >2-fold increase in coronary APV” value [2, 3] was less than 20 s, the “time for all parameters to return to baseline post injection” value [2, 3] was no more than 10 min and the “Coronary, maximal folds increase in average peak velocity (APVmax/APVbaseline)” value ([2]; anesthetized dogs) was 2.5 ± 0.3 fold. For the same compound, the “Peripheral, maximal folds increase in average peak velocity (APVmax/APVbaseline)” value ([2]; anesthetized dogs) was 2.0 ± 0.4 fold, the “Coronary, maximal folds increase in average peak velocity (APVmax/APVbaseline)” value [2, 4] was 2.5±0.3 fold and the “Peripheral, maximal folds increase in average peak velocity (APVmax/APVbaseline)” value [2, 4] was 2.0±0.4 fold.
